In patent US8877759B2, “Aminopyrazines as ATR kinase inhibitors” (Vertex Pharnaceuticals Incorporated, priority 2011, dated 2014):

Biological target: T1, full-length ATR (Homo sapiens, UniProt Q13535)
T1 construct: Assays were carried out at 25° C. in the presence of 5 nM full-length ATR
Test: ATR Inhibition Assay (radioactive-phosphate incorporation)
Type: biochemical
Conditions: not given
Procedure: Compounds were screened for their ability to inhibit ATR kinase using a radioactive-phosphate incorporation assay. Assays were carried out in a mixture of 50 mM Tris/HCl (pH 7.5), 10 mM MgCl2 and 1 mM DTT.
Assays were carried out at 25° C. in the presence of 5 nM full-length ATR. An assay stock buffer solution was prepared containing all of the reagents listed above, with the exception of ATP and the test compound of interest. […] The plate was pre-incubated for 10 minutes at 25° C. and the reaction initiated by addition of 15 μL [γ-33P]ATP (final concentration 10 μM).
The reaction was stopped after […] by the addition of 30 μL 0.1M phosphoric acid containing 2 mM ATP. A multiscreen phosphocellulose filter 96-well plate (Millipore, Cat no. MAPHN0B50) was pretreated with 100 μL 0.2M phosphoric acid prior to the addition of 45 μL of the stopped assay mixture. The plate was washed with 5×200 μL 0.2M phosphoric acid.
After removing mean background values for all of the data points, Ki(app) data were calculated from non-linear regression analysis of the initial rate data using the Prism software package (GraphPad Prism version 3.0cx for Macintosh, GraphPad Software, San Diego Calif., USA).

T1 sequence (Q13535 whole entry): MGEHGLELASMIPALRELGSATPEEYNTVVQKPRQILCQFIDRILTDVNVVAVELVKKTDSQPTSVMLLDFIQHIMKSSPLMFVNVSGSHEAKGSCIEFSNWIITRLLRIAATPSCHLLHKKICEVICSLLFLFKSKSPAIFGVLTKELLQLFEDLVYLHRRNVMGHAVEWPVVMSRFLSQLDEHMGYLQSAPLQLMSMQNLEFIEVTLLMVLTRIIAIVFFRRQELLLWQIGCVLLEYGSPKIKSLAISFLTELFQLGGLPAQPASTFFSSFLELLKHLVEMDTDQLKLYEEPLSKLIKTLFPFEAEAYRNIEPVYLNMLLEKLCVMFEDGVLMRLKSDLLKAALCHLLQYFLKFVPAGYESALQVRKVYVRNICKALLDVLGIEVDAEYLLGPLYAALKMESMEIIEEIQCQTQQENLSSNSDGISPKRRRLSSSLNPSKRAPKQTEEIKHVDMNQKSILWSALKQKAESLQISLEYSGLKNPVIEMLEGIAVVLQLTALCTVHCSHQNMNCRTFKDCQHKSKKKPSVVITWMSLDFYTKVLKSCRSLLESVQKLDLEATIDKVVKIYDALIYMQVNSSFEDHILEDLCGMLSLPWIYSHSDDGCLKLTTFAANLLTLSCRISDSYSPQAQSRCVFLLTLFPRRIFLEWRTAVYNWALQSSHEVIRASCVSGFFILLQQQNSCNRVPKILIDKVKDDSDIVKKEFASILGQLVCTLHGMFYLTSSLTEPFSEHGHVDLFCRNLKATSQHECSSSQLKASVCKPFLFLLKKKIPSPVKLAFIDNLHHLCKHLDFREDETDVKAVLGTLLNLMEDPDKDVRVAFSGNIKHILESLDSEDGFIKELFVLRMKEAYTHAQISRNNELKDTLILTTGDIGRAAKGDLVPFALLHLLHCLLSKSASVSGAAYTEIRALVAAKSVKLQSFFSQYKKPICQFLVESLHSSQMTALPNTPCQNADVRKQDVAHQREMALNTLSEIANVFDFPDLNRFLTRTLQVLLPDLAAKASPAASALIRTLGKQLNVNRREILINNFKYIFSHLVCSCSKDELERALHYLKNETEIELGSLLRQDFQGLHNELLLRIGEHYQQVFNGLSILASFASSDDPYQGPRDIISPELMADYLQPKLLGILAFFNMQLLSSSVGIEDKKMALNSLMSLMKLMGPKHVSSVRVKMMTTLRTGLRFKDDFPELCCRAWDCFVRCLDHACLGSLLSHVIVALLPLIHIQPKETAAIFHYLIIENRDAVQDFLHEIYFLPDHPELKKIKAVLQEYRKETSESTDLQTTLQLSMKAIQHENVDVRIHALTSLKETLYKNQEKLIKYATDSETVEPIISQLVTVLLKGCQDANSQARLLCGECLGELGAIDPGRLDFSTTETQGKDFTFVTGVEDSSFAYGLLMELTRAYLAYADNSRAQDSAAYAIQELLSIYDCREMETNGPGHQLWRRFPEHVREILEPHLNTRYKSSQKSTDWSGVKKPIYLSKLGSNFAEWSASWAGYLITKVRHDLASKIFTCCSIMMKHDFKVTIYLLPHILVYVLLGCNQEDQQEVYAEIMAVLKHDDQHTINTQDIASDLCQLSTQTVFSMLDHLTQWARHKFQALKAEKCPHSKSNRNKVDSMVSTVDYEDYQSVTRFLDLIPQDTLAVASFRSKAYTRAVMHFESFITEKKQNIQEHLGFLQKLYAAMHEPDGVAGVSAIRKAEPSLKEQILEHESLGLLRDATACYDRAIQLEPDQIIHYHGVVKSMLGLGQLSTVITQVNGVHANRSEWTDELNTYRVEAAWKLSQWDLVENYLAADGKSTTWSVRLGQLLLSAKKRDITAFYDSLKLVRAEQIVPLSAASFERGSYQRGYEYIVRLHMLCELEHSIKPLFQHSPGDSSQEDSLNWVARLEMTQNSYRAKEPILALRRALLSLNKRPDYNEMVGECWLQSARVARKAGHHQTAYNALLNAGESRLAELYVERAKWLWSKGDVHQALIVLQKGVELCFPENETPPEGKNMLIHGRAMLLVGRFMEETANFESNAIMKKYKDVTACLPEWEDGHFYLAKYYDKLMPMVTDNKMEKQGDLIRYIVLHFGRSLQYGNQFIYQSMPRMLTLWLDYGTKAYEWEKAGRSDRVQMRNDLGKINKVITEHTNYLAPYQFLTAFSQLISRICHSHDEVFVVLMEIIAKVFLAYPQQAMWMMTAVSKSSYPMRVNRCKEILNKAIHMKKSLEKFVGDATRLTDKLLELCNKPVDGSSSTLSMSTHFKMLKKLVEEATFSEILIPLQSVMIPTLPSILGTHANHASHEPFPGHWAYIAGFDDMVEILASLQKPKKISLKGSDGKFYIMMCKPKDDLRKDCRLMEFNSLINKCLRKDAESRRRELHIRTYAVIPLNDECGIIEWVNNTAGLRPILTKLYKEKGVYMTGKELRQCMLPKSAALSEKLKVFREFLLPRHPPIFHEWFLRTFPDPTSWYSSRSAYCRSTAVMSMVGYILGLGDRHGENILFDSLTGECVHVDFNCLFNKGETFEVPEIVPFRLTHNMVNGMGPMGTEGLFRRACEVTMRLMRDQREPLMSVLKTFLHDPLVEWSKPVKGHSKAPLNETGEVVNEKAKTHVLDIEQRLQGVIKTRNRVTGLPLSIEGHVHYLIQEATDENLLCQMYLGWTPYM

| Ki | Compound |
| --- | --- |
| < 1 nM | CC(C)(C#N)c1cc(-c2cnc(N)c(-c3nnc(-c4ccc5c(c4)CNCC5)o3)n2)ccn1 [Compound I-55] |
| < 1 nM | CC(C)(C#N)c1cc(-c2cnc(N)c(-c3nnc(-c4ccc(CCN)cc4)o3)n2)ccn1 [Compound I-57] |
| 5 to 20 nM | CC(C)(C#N)c1cc(-c2cnc(N)c(-c3nnc(-c4cccc(C5CNCCN5)c4)o3)n2)ccn1 (stereo not shown) [Compound I-58] |
| < 1 nM | CC(C)(C#N)c1cc(-c2cnc(N)c(-c3nnc(-c4ccc(N5CCCC(N)C5)cc4)o3)n2)ccn1 (stereo not shown) [Compound I-61] |
| < 1 nM | CC(C)(C#N)c1cc(-c2cnc(N)c(-c3nnc(-c4cccc(CCN)c4)o3)n2)ccn1 [Compound I-66] |
| 5 to 20 nM | CC(C)(C#N)c1cc(-c2cnc(N)c(-c3nnc(-c4ccc(N5CCCC5CN)cc4)o3)n2)ccn1 (stereo not shown) [Compound I-68] |
| < 1 nM | CC(C)(C#N)c1cc(-c2cnc(N)c(-c3nnc(-c4ccc(N5CCNCC5)cc4)o3)n2)ccn1 [Compound I-73] |
| < 1 nM | CC(C)(C#N)c1cc(-c2cnc(N)c(-c3nnc(-c4cccc(N5CC[C@@H](N)C5)c4)o3)n2)ccn1 [Compound I-77] |
| < 1 nM | CC(C)(C#N)c1cc(-c2cnc(N)c(-c3nnc(-c4ccc(C5CCCN5)cc4)o3)n2)ccn1 (stereo not shown) [Compound I-79] |
| < 1 nM | COC[C@@H](N)c1ccc(-c2nnc(-c3nc(-c4ccnc(C(C)(C)C#N)c4)cnc3N)o2)cc1 [Compound I-87] |
| < 1 nM | CC(C)(C#N)c1cc(-c2cnc(N)c(-c3nnc(-c4ccc(N5CC[C@H](N)C5)cc4)o3)n2)ccn1 [Compound I-88] |
| 5 to 20 nM | CC(C)(C#N)c1cc(-c2cnc(N)c(-c3nnc(-c4cccc(C5CCCN5)c4)o3)n2)ccn1 (stereo not shown) [Compound I-89] |
| < 1 nM | CC(C)(C#N)c1cc(-c2cnc(N)c(-c3nnc(-c4cccc(N5CC[C@H](N)C5)c4)o3)n2)ccn1 [Compound I-90] |
| < 1 nM | CC(C)(C#N)c1cc(-c2cnc(N)c(-c3nnc(-c4cc5c(s4)CCNC5)o3)n2)ccn1 [Compound I-96] |
| 20 to 100 nM | CC(C)(C#N)c1cc(-c2cnc(N)c(-c3nnc(-c4ccc(C5COCCN5)cc4)o3)n2)ccn1 (stereo not shown) [Compound I-99] |
| 5 to 20 nM | CN1CCN(Cc2ccc(-c3nnc(-c4nc(-c5ccnc(C(C)(C)C#N)c5)cnc4N)o3)cc2)CC1 [Compound I-100] |
| < 1 nM | CC(C)(C#N)c1cc(-c2cnc(N)c(-c3nnc(-c4ccc(NCC5CNC5)cc4)o3)n2)ccn1 [Compound I-104] |
| < 1 nM | CC(C)(C#N)c1cc(-c2cnc(N)c(-c3nnc(-c4ccc(NC5CNC5)cc4)o3)n2)ccn1 [Compound I-107] |
| < 1 nM | CC(C)(C#N)c1cc(-c2cnc(N)c(-c3nnc(-c4cccc(N5CC(N)C5)c4)o3)n2)ccn1 [Compound I-110] |
| < 1 nM | CC(C)(C#N)c1cc(-c2cnc(N)c(-c3nnc(-c4cc5c(s4)CNCC5)o3)n2)ccn1 [Compound I-111] |
| < 1 nM | CC(C)(C#N)c1cc(-c2cnc(N)c(-c3nnc(-c4ccc(OCCN)cc4)o3)n2)ccn1 [Compound I-112] |
| < 1 nM | CC(C)(C#N)c1cc(-c2cnc(N)c(-c3nnc(-c4ccc(OC5CNC5)cc4)o3)n2)ccn1 [Compound I-113] |

More lines, now with the values behind:

| Compound | Ki |
| --- | --- |
| CC(C)(C#N)c1cc(-c2cnc(N)c(-c3cc(-c4ccc(CNC5CCOCC5)cc4)no3)n2)ccn1 [Compound I-53, 2-(4-(5-amino-6-(3-(4-(((tetrahydro-2H-pyran-4-yl)amino)methyl)phenyl)isoxazol-5-yl)pyrazin-2-yl)pyridin-2-yl)-2-methylpropanenitrile] | < 1 nM |
| CN(C)CCOc1ccc(-c2nnc(-c3nc(-c4ccnc(C(C)(C)C#N)c4)cnc3N)o2)cc1 [Compound I-56] | < 1 nM |
| CC(C)(C#N)c1cc(-c2cnc(N)c(-c3cc(-c4ccc(C5COCCN5)cc4)no3)n2)ccn1 (stereo not shown) [Compound I-60] | < 1 nM |
| CC(C)(C(=O)NCCN)c1cc(-c2cnc(N)c(-c3cc(-c4ccccc4)no3)n2)ccn1 [Compound I-63] | < 1 nM |
| CNCCNC(=O)C(C)(C)c1cc(-c2cnc(N)c(-c3cc(-c4ccccc4)no3)n2)ccn1 [Compound I-65] | 5 to 20 nM |
| COCC(CO)CNCc1ccc(-c2cc(-c3nc(-c4ccnc(C(C)(C)C#N)c4)cnc3N)on2)cc1 (stereo not shown) [Compound I-67] | < 1 nM |
| CC(C)(C#N)c1cc(-c2cnc(N)c(-c3nnc(-c4ccc(OCCN5CCCC5)cc4)o3)n2)ccn1 [Compound I-69] | < 1 nM |
| CC(C)(C#N)c1cc(-c2cnc(N)c(-c3nnc(-c4ccc(F)cc4NCCN)o3)n2)ccn1 [Compound I-70] | < 1 nM |
| N#CC1(c2cc(-c3cnc(N)c(-c4cc(-c5ccccc5)no4)n3)ccn2)CN2CCC1CC2 (stereo not shown) [Compound I-74] | < 1 nM |
| CC(C)(C#N)c1cc(-c2cnc(N)c(-c3nnc(-c4ccc(NCCN)cc4F)o3)n2)ccn1 [Compound I-75] | 5 to 20 nM |
| CNCCN(C)c1ccc(-c2nnc(-c3nc(-c4ccnc(C(C)(C)C#N)c4)cnc3N)o2)cc1 [Compound I-78] | < 1 nM |
| CN(C)CCNC(=O)C(C)(C)c1cc(-c2cnc(N)c(-c3cc(-c4ccccc4)no3)n2)ccn1 [Compound I-85] | 5 to 20 nM |
| CCCN(CCN(C)C)C(=O)c1cc(-c2cnc(N)c(-c3cc(-c4ccccc4)no3)n2)ccn1 [Compound I-91] | 5 to 20 nM |
| CC(C)(C#N)c1cc(-c2cnc(N)c(-c3cc(-c4ccc(CNC5CCCOC5)cc4)no3)n2)ccn1 (stereo not shown) [Compound I-93] | < 1 nM |
| N#CC1(c2cc(-c3cnc(N)c(-c4nnc(-c5ccccc5)o4)n3)ccn2)CCNCC1 [Compound I-94] | 5 to 20 nM |
| CC(C)(C#N)c1cc(-c2cnc(N)c(-c3cc(-c4ccc(CN[C@H]5CCOC5)cc4)no3)n2)ccn1 [Compound I-97] | < 1 nM |
| CC(C)(C#N)c1cc(-c2cnc(N)c(-c3cc(-c4ccc(CNCC5COC5)cc4)no3)n2)ccn1 [Compound I-102] | < 1 nM |
| CN(C)CCNc1ccc(-c2nnc(-c3nc(-c4ccnc(C(C)(C)C#N)c4)cnc3N)o2)c(F)c1 [Compound I-103] | 20 to 100 nM |
| CC(C)(C#N)c1cc(-c2cnc(N)c(-c3nnc(-c4ccc(CNCC5COC5)cc4)o3)n2)ccn1 [Compound I-105] | < 1 nM |
| CN(C)CCNc1cc(F)ccc1-c1nnc(-c2nc(-c3ccnc(C(C)(C)C#N)c3)cnc2N)o1 [Compound I-108] | < 1 nM |
| CC(C)(C#N)c1cc(-c2cnc(N)c(-c3nnc(-c4ccc(NCCN5CCOCC5)cc4)o3)n2)ccn1 [Compound I-116] | < 1 nM |

Same assay, conditions: Ki(app); 5 nM full-length ATR, 10 μM [γ-33P]ATP, 800 μM target peptide, 25° C.

| Compound | ATR Ki |
| --- | --- |
| CC(C)(C#N)c1cc(-c2cnc(N)c(-c3nnc(-c4ccc(N5CCC[C@H](N)C5)cc4)o3)n2)ccn1 [Compound I-64] | +++ (Compounds with a Ki value >5 nM but ≦1 nM are marked with “+++.”) |
| CC(C)(C#N)c1cc(-c2cnc(N)c(-c3cc(-c4ccc([C@H]5COCCN5)cc4)no3)n2)ccn1 [Compound I-71] | +++ (Compounds with a Ki value >5 nM but ≦1 nM are marked with “+++.”) |
| CN(CCN)c1ccc(-c2nnc(-c3nc(-c4ccnc(C(C)(C)C#N)c4)cnc3N)o2)cc1 [Compound I-72] | +++ (Compounds with a Ki value >5 nM but ≦1 nM are marked with “+++.”) |
| CC(C)(C#N)c1cc(-c2cnc(N)c(-c3nnc(-c4ccc(N5CCC(N)CC5)cc4)o3)n2)ccn1 [Compound I-76] | +++ (Compounds with a Ki value >5 nM but ≦1 nM are marked with “+++.”) |
| CC(C)(C#N)c1cc(-c2cnc(N)c(-c3nnc(-c4ccc(C5CNC5)cc4)o3)n2)ccn1 [Compound I-80] | +++ (Compounds with a Ki value >5 nM but ≦1 nM are marked with “+++.”) |
| CC(C)(C#N)c1cc(-c2cnc(N)c(-c3nnc(-c4ccc5c(c4)CNC5)o3)n2)ccn1 [Compound I-81] | +++ (Compounds with a Ki value >5 nM but ≦1 nM are marked with “+++.”) |
| CC(C)(C#N)c1cc(-c2cnc(N)c(-c3nnc(-c4ccc(C5CNCCN5)cc4)o3)n2)ccn1 (stereo not shown) [Compound I-82] | +++ (Compounds with a Ki value >5 nM but ≦1 nM are marked with “+++.”) |
| CC(C)(C#N)c1cc(-c2cnc(N)c(-c3nnc(-c4cccc(NC5CNC5)c4)o3)n2)ccn1 [Compound I-84] | +++ (Compounds with a Ki value >5 nM but ≦1 nM are marked with “+++.”) |
| CN1CCN(c2ccc(-c3nnc(-c4nc(-c5ccnc(C(C)(C)C#N)c5)cnc4N)o3)cc2)CC1 [Compound I-86] | +++ (Compounds with a Ki value >5 nM but ≦1 nM are marked with “+++.”) |
| CC(C)(C#N)c1cc(-c2cnc(N)c(-c3nnc(-c4cccc(C5CNC5)c4)o3)n2)ccn1 [Compound I-95] | +++ (Compounds with a Ki value >5 nM but ≦1 nM are marked with “+++.”) |
| N#CC1(c2cc(-c3cnc(N)c(-c4nnc(-c5cccs5)o4)n3)ccn2)CCNCC1 [Compound I-101] | +++ (Compounds with a Ki value >5 nM but ≦1 nM are marked with “+++.”) |
| CC(C)(C#N)c1cc(-c2cnc(N)c(-c3nnc(-c4ccc(O[C@H]5CCNC5)cc4)o3)n2)ccn1 [Compound I-106] | +++ (Compounds with a Ki value >5 nM but ≦1 nM are marked with “+++.”) |
| CC(C)(C#N)c1cc(-c2cnc(N)c(-c3nnc(-c4ccc(C5CCNCC5)cc4)o3)n2)ccn1 [Compound I-109] | +++ (Compounds with a Ki value >5 nM but ≦1 nM are marked with “+++.”) |
| CN(C)CCNc1ccc(-c2nnc(-c3nc(-c4ccnc(C(C)(C)C#N)c4)cnc3N)o2)cc1 [Compound I-114] | +++ (Compounds with a Ki value >5 nM but ≦1 nM are marked with “+++.”) |
| CCOC(=O)C(C)(C)c1cc(-c2cnc(N)c(-c3cc(-c4ccccc4)no3)n2)ccn1 [Compound I-115] | +++ (Compounds with a Ki value >5 nM but ≦1 nM are marked with “+++.”) |
